In patent publication US20030138419A1, “Recombinant antibody fusion proteins and methods for detection of apoptotic cells” (The University of Tennessee Research Corporation, priority 2001, published 2003):
Residues, ends and D or L forms follow the SMILES beside them. *: point of attachment. Cbz = O=C(OCc1ccccc1)*; CH2F = FC*

How the values were obtained:
Jurkat cells = assay: Flow cytometry of annexin V and scFv binding to Jurkat cells treated with staurosporine, camptothecin or anti-Fas (12 hr); format: cell-based
Protocol: (§1) Jurkat cells were harvested from culture and resuspended at a density of 10^6 /ml in RPMI 1640 containing 10% fetal bovine'serum (FBS). Apoptosis was induced for 12 hours with 1.0 μM staurosporine (Sigma Chemical Co. of St. Louis, Mo.), 2.0 μM camptothecin (Sigma), or 2.0 μg/ml anti-Fas antibody (clone 7C11; Beckman Coulter Inc. of Brea, Calif.). To inhibit apoptosis, parallel cultures were pre-incubated for 2 hours with 20 μM z-Val-Ala-Asp(Ome)-fluoromethylketone (z-VAD(Ome)-FMK) (Enzyme System Products of Livermore, Calif.). To inhibit membrane blebbing, parallel cultures were pre-incubated for 2 hours with 10 μM Y-27632 (Tocris of Ballwin, Mo.). At the end of the incubation period, 5×10^5 cells were aliquoted into tubes and stained for flow cytometry or confocal microscopy.
Cells were washed with 4.0 ml of ice-cold Hanks Balanced Salt Solution (Mediatech, Herndon, Va.) containing 1.0 mM CaCl2, 3% FBS, and 0.02% NaN3 (HBSS/FBS). […] 30,000 events were examined per sample on a FACSCalibur (BD Biosciences). The staining profiles were analyzed using FLOWJO™ software (Treestar, Inc. of San Carlos, Calif.).

apoptotic Jurkat cells = assay: Confocal immunofluorescence microscopy of scFv and annexin V binding to apoptotic Jurkat cells; format: cell-based
Protocol: as §1
Cells were washed with HBSS and fixed with ice-cold 4% paraformaldehyde for 10 minutes. […] After incubation with the scFv, cells were washed once with HBSS/FBS and incubated with biotinylated annexin V (BD Biosciences) for 15 minutes on ice. Cells were then washed twice with HBSS/FBS and stained with streptavidin-conjugated Alexaflour 488 (Molecular Probes), Rhodamine Red-conjugated human serum IgG (Jackson Immunoresearch Laboratories) and the nucleic acid dye TO-PRO-3 (Molecular Probes). Following staining for 15 minutes on ice, cells were washed with HBSS/FBS and mounted onto poly-L-lysine-coated glass slides for viewing with a Zeiss LSM 510 laser scanning microscope (Carl Zeiss, Inc. of Thorwood, N.Y.).
Cells were washed with HBSS and fixed with ice-cold 4% paraformaldehyde for 10 minutes. […] After incubation with the scFv, cells were washed once with HBSS/FBS and incubated with biotinylated annexin V (BD Biosciences) for 15 minutes on ice. Cells were washed twice with HBSS/FBS and stained with streptavidin-conjugated Alexaflour 488 (Molecular Probes), Rhodamine Red-conjugated human serum IgG (Jackson Immunoresearch Laboratories) and the nucleic acid dye TO-PRO-3 (Molecular Probes). After a 15 minute incubation on ice, cells were washed with HBSS/FBS and mounted onto poly-L-lysine-coated glass slides for viewing with a Zeiss LSM 510 laser scanning microscope (Carl Zeiss Inc., Thorwood, N.Y.).

SMILES: COC(=O)C[C@H](NC(=O)[C@H](C)NC(=O)[C@@H](NC(=O)OCc1ccccc1)C(C)C)C(=O)CF [z-VAD(OMe)-FMK, z-Val-Ala-Asp(Ome)-fluoromethylketone] (Cbz-Val-Ala-Asp(OMe)-CH2F)
- effect of pretreatment on binding of the D56R/S76R scFv (Jurkat cells; 20 μM, 2 hours pre-incubation): largely eliminated
- effect of pretreatment on staining with annexin V (Jurkat cells; 20 μM, 2 hours pre-incubation): decreased to near-background levels
- effect of pretreatment on staining of cells (apoptotic Jurkat cells; cells treated with camptothecin or anti-Fas antibody): greatly reduced
- effect of pretreatment on annexin V and scFv binding (apoptotic Jurkat cells; cells treated with staurosporine): reduces both annexin V and scFv binding to background levels

SMILES: C[C@@H](N)[C@H]1CC[C@H](C(=O)Nc2ccncc2)CC1 [Y-27632]
- effect on binding of annexin V (apoptotic Jurkat cells): did not affect
- blebbing and nuclear fragmentation (apoptotic Jurkat cells; anti-Fas treated cells, 10 μM): inhibited
- effect on binding of the D56R/S76R scFv (apoptotic Jurkat cells; anti-Fas treated cells, 10 μM): greatly reduced

SMILES: CC[C@@]1(O)C(=O)OCc2c1cc1n(c2=O)Cc2cc3ccccc3nc2-1 [camptothecin]
- cells observed to bind annexin V (Jurkat cells; 12 hr incubation with the apoptotic stimulus): Approximately 29%
